For orientation: half-life means the time in which the quantity being followed falls by half. Lower therefore signals fast loss. The term microsomal CLint denotes the rate of metabolic loss divided by the concentration. A high value points to rapid turnover.

Consider three molecules from patent publication US20080262228A1, “Metabolites of 5-fluoro-8- quinoline and methods of preparation and uses thereof” (Wyeth, priority 2006, published 2008).

Counter-ions that a name gives are not always drawn.

One data set in a line: in vitro. As to conditions: microsomes. Here is the method:
Experiments were conducted to determine the intrinsic clearance by substrate depletion for COMPOUND I metabolism in liver microsomes in the presence of NADPH and UDPGA. Incubations containing midazolam (0.2 μM with 0.1 mg/mL liver microsomes) or diclofenac (1 μM with 1 mg/mL liver microsomes) were also performed as positive controls for oxidative and glucuronidation activity, respectively. Sample preparation and incubation were performed on a MultiProbe IIEX Robotic Liquid Handling System (Perkin-Elmer, Shelton, Conn.) and a Micromix 5 (Packard, Downers Grove, Ill.). Samples were pre-incubated at 37° C. Control incubations were conducted under the same conditions without cofactors. At specified time points (0, 10, 20 and 30 min), 150 μL aliquots were transferred to tubes with 500 μL acetonitrile containing 30 ng/mL of the internal standard (furosemide) to precipitate the protein. Samples were centrifuged at 4° C. for 10 min at 3400 rpm (ThermoForma, Marietta, Ohio). The supernatant (400 μL) was transferred to a clean test tube and the acetonitrile evaporated under a stream of nitrogen in a Turbo Vap (Caliper Life Sciences, Hopkinton, Mass.). The samples were then reconstituted in 200 μL of 20% methanol in water and analyzed by LC/MS.
The HPLC system used was a Surveyor HPLC (Thermo Electron Corp., San Jose, Calif.). Separations were accomplished on a Supelcosil LC-C18 column (150×4.6 mm, 5 μm) (Supelco, Bellefonte, Pa.). The column temperature was maintained at ambient and the sample chamber was at 10° C. Mobile phase A was 5 mM ammonium acetate in water and mobile phase B was methanol.
The mass spectrometer used for microsomal stability analysis was a TSQ Quantum (Thermo Electron Corp.; San Jose, Calif.) equipped with an electrospray ionization (ESI) source and operated in the positive ionization mode.
Peak area ratios for COMPOUND I against the internal standard were used to express the % remaining at given time points. The percent of remaining COMPOUND I was calculated by dividing the […]. In vitro intrinsic clearance (CLint) of COMPOUND I was calculated by linear regression of log % remaining vs time plots using Microsoft Excel, 7.0 and normalizing to mg protein content. Metabolic half-life (t1/2) was calculated by dividing 0.693 by the intrinsic clearance.

Data set [1] in a line: Metabolite profiling in liver microsomes and S9. As to conditions: liver microsomes and S9, 10 μM COMPOUND I, 30 min; species letters not defined. Format: in vitro ADME, rat, dog, monkey, human. As for the experimental part:
Microsomal incubations for metabolite profiling were similar to those described above for intrinsic clearance determination (see Table 1). Aliquots of COMPOUND I (10 μL), dissolved in DMSO:methanol (1:9), were added to a 96-well plate containing phosphate buffer, and MgCl2 and the liver microsomes at 37° C. using the same automation apparatus as for the stability study described hereinabove. The reactions were initiated by the addition of the UDPGA and NADPH generating system. The final incubation volume for all samples was 1 mL and the length of incubation was 30 min. […] Three 250 μL aliquots were transferred to a 96-well plate containing 900 μL acetonitrile to precipitate the protein. […] The samples were then reconstituted in 150 μL of 20% methanol in water. The three aliquots for each sample were pooled and analyzed by LC/MS.
S9 incubation buffer and cofactors were chosen to allow N-acetylation and carbamoyl glucuronidation in addition to oxidative and glucuronidation pathways possible in liver microsomes. Incubations of sulfamethazine and SCA-136 with liver S9 were used as positive controls for N-acetylation and carbamoyl glucuronidation, respectively. Following a 30 min. incubation, 750 μL from each sample were added to 900 μL acetonitrile. Following centrifugation and evaporation of the supernatant, the samples were reconstituted in 450 μL of 20% methanol in water for analysis by HPLC/UV and LC/MS (see below).
The HPLC system used for mass spectrometric analysis was an Agilent 1100 HPLC (Agilent Technologies, Palo Alto, Calif.) equipped with a binary pump and a diode array UV detector. The UV detector was set to monitor 190-400 nm. Separations were accomplished on a Luna C18 column (150×2.1 mm, 5 μm) (Phenomenex Incorporated, Torrance, Calif.).
The mass spectrometer used for metabolite characterization was a Finnigan LCQ Deca ion trap mass spectrometer (Thermo Electron Corp.). […] Full scan and data dependent MS2 and MS3 mass spectra were recorded. Finnigan Xcalibur software (version 1.3) was used for control of equipment and recording of data from UV and LC/MS analyses.
Chromatographic profiles of COMPOUND I (10 μM) metabolites in incubations with liver microsomes in the presence of NADPH are presented in FIG. 1. Chromatographic profiles of COMPOUND I (10 μM) metabolites in incubations with liver microsomes in the presence of NADPH and UDPGA are presented in FIG. 2. Chromatographic profiles of COMPOUND I (10 μM) metabolites in incubations with liver S9 in the presence of NADPH, UDPGA and acetyl coenzyme A (CoA) are presented in FIG. 3. In incubations containing NADPH, UDPGA and acetyl CoA, fourteen Phase I metabolites (M1, M6, M8, M12, M13, M14, M15, M16, M17, M18, M20, M21, M22 and M23) and six Phase II metabolites (M2, M3, M5, M7, M9 and M10) were observed. In incubations without cofactors, no metabolites were observed.
LC/MS analysis was conducted on extracts of mouse, rat, monkey and human liver microsomes and S9. The mass spectral data for the characterized COMPOUND I metabolites are discussed below.
On the technique in general: Liver microsomes are a subcellular fraction often used to study metabolism.

Data set [2] is described as follows: Turnover to metabolites in cryopreserved hepatocytes. As to conditions: hepatocytes, 20 μM. Here is the method:
Chromatographic analyses were performed with a Waters Alliance model 2695 HPLC system (Waters Corp., Milford, Mass.) that was equipped with a built-in autosampler. The column eluent was monitored with a model 996 diode array UV detector, set to monitor 250 nm, and a FloOne β Model A525 radioactivity flow detector (Perkin Elmer) with a 250 μL flow cell. Separation of the parent compound from metabolites was accomplished using a Discovery C18 column, 250×4.6 mm, 5 μm (Supelco, Bellefonte, Pa.) at an ambient temperature of approximately 20° C. Mobile phase A was 10 mM ammonium acetate (pH 4.5) and mobile phase B was acetonitrile and they were delivered at 1 mL/min using the gradient described in Table 10. The Ultima Flo M scintillant flow rate was 3 mL/min.
Flo-One analytical software (version 3.65) was utilized to integrate the radioactive peaks. Means and standard deviations were calculated using Microsoft Excel® 2000. Micromass MassLynx software (version 4.0, Waters Corp.) was used for control of LC/MS equipment and recording of data from LC/MS analyses.

Take `COc1cc(N2CCN(C3CCN(c4ccc(F)c5cccnc45)CC3)CC2)c2ncccc2c1` [COMPOUND I, 5-Fluoro-8-{4-[4-(6-methoxyquinolin-8-yl)piperazin-1-yl]piperidin-1-yl}quinoline]: the half-life at 1 μM in “in vitro” (both, human) amounted to 7 min; in the data set “in vitro” (male, Sprague-Dawley, rat), 2 min; in the data set “in vitro” (male, beagle, dog), 13 min; in the data set “in vitro” (male, monkey) it was 2 min. In addition, the microsomal CLint at 1 μM in the data set “in vitro” (both, human) amounted to 100 µL/min/mg; in the data set “in vitro” (male, Sprague-Dawley, rat) it was 332 µL/min/mg; in “in vitro” (male, beagle, dog) it was 55 µL/min/mg; in “in vitro” (male, monkey) it was 312 µL/min/mg. Besides, in data set [1], the “Species (in which the metabolite was characterized)” value is “R, D, M, H”.

As to `Oc1cc(N2CCN(C3CCN(c4ccc(F)c5cccnc45)CC3)CC2)c2ncccc2c1` [Metabolite M21, 8-{4-[1-(5-fluoroquinolin-8-yl)piperidin-4-yl]piperazin-1-yl}quinolin-6-ol trihydrochloride], in data set [1], the “Species (in which the metabolite was characterized)” value was “R, D, M, H”.

Take `COc1cc(N2CCN(C3CCN(c4ccc(F)c5cccnc45)CC3)CC2)c2ncccc2c1` [[^14C]COMPOUND I, [piperazine-^14C(U)]-5-fluoro-8-(4-(4-(6-methoxyquinolin-8-yl)piperazin-1-yl)piperidin-1-yl)quinoline trisuccinate]: the “average turnover to metabolites” value in data set [2] (both, human, 1 h) is 13%; in data set [2] (both, human, 4 h), 18%; in data set [2] (dog, 1 h), 8%; in data set [2] (dog, 4 h), 12%; in data set [2] (male, rat, 1 h), 32%; in data set [2] (male, rat, 4 h) it was 38%.
